Assay results: US20250340563A1, “FUSED PYRIDAZINE DERIVATIVES AS NLRP3 INHIBITORS” (Takeda Pharmaceutical Company Limited, priority 2022, published 2025)

molecular target: NLRP3 inflammasome (Homo sapiens, UniProt Q96P20); assay: IL-1β assay in IFN-γ-differentiated, LPS-primed, ATP-activated THP-1 cells (ELISA); assay type: cell-based; settings: 50 ng/mL LPS priming, 2.5 mM ATP activation, 2 hours
Experimental: Monocytic THP-1 cells (ATCC: TIB-202) are maintained in accordance with the provider's instructions in RPMI media (Life Technologies, Cat #A10491-01); RPMI is supplemented with 10% heat inactivated fetal bovine serum (Hyclone Cat #SH30396.03). The cells are differentiated into macrophages by the addition of 25 ng/mL IFN-7 (PeproTech, Cat #300-02-100UG) for 24 hours at 37° C./5% CO2. Media is exchanged with fresh media with no FBS, and the cells are treated with 50 ng/mL LPS (priming step) for 24 hours at 37° C./5% CO2 (LPS-EK: Invivogen, Cat #tlrl-peklps). Media is exchanged with fresh media with no FBS. The cells are plated at 40,000 cells per well in 384-well flat-bottom cell culture plates (Costar 3764) containing compounds (added in 1:1000) in a 1:3.16 serial dilution series in DMSO and are incubated for 30 minutes at 37° C./5% CO2. The NLRP3 inflammasome is activated with the addition of 2.5 mM ATP (Sigma Cat #A3377) and the cells are incubated for 2 hours at 37° C./5% CO2. At the end of the incubation period, 40 μL supernatant is removed, and […] are monitored using an ELISA (Human […], R&D systems, Cat #DY201) in accordance with the manufacturer's instructions.
The IC50 values are calculated from a plot of percentage of inhibition versus the inhibitor concentration by a logistics curve fit according to: Y=[Bottom+(Top−Bottom)]/(1+10^[(Log IC50−X)·Hill Slope], where Y is the % inhibition at the inhibitor concentration, X, “Bottom” is the lowest inhibition value, i.e. 0%, “Top” is the maximum inhibition value, i.e. 100%, and the “Hill Slope” describes the slope of the sigmoidal curve between the “Bottom” and “Top” values. The curve fitting was conducted with internally developed software.

NLRP3 inflammasome, sequence (Q96P20 whole entry): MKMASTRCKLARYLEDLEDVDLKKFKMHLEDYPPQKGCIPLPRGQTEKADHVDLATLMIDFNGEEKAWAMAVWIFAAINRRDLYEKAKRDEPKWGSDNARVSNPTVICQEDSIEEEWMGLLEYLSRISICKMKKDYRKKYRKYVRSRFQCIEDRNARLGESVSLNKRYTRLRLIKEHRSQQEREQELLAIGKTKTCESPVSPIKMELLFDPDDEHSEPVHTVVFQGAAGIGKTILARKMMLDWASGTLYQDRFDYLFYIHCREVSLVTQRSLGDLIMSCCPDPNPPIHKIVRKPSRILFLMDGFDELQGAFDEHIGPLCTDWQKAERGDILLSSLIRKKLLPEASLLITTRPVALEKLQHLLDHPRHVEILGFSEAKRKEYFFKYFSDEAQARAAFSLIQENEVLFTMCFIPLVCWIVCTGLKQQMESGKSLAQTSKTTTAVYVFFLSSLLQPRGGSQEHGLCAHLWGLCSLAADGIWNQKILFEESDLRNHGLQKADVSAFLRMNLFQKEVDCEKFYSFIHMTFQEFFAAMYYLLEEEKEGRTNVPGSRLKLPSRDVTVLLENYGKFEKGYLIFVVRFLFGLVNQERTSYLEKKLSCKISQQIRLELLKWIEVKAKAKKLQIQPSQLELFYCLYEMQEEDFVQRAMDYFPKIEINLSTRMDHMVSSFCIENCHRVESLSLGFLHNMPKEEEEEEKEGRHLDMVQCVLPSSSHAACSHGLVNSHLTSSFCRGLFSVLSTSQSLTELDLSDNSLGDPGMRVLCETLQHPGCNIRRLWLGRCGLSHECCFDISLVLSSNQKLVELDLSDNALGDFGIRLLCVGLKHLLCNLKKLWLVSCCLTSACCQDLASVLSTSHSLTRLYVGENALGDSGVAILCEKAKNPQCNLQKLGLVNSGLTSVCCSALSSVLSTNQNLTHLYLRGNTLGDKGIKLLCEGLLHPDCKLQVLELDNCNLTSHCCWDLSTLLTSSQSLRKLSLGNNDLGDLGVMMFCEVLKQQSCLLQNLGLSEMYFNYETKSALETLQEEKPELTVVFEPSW

How did the IC50 turn out when `COc1ccc(-c2nnc(NC3CCN(C)C3)c3ccccc23)cc1` (centres unmarked) [Example 126, 4-(4-methoxyphenyl)-N-(1-methylpyrrolidin-3-yl)phthalazin-1-amine] was run?
The IC50 was 2570 nM.

How did the IC50 turn out when `COc1ccc(-c2nnc(N[C@H]3CC[C@](O)(C(F)(F)F)CC3)c3ccccc23)cc1` [Example 128, trans-4-((4-(4-methoxyphenyl)phthalazin-1-yl)amino)-1-(trifluoromethyl)cyclohexan-1-ol] was run?
The IC50 was 3020 nM.

For `COc1ccc(-c2nnc(NCC(C)N3CCCC3)c3ccccc23)cc1` (centres unmarked) [Example 129, 4-(4-methoxyphenyl)-N-(2-(pyrrolidin-1-yl)propyl)phthalazin-1-amine], which IC50 is on record?
Its IC50 is 2820 nM.

`COc1ccc(-c2nnc(NCC3CCCCN3C)c3ccccc23)cc1` (centres unmarked) [Example 130, 4-(4-methoxyphenyl)-N-((1-methylpiperidin-2-yl)methyl)phthalazin-1-amine] was tested. Which IC50 did it give?
The IC50 was 3890 nM.

With `COc1ccc(-c2nnc(NCC3(N4CCCC4)CC3)c3ccccc23)cc1` [Example 131, 4-(4-methoxyphenyl)-N-((1-(pyrrolidin-1-yl)cyclopropyl)methyl)phthalazin-1-amine] as the molecule, how does the IC50 read?
Its IC50 is 3630 nM.

For `COc1ccc(-c2nnc(NC3(CN4CCC4)CC3)c3ccccc23)cc1` [Example 132, N-(1-(azetidin-1-ylmethyl)cyclopropyl)-4-(4-methoxyphenyl)phthalazin-1-amine], which IC50 is on record?
Its IC50 is 3890 nM.

`OC1CC2(C1)CC(Nc1nnc(-c3ccc(Cl)cc3)c3ccccc13)C2` (centres unmarked) [Example 133, 6-((4-(4-chlorophenyl)phthalazin-1-yl)amino)spiro[3.3]heptan-2-ol] was tested. Which IC50 did it give?
The IC50 was 468 nM.

How did the IC50 turn out when `CO[C@H]1C[C@@H](Nc2nnc(-c3ccc(Cl)cc3)c3ccccc23)C1` [Example 134, 4-(4-chlorophenyl)-N-(cis-3-methoxycyclobutyl)phthalazin-1-amine] was run?
Its IC50 is 2290 nM.

How did the IC50 turn out when `COC1(C)CC(Nc2nnc(-c3ccc(Cl)cc3)c3ccccc23)C1(C)C` (centres unmarked) [Example 135, 4-(4-chlorophenyl)-N-(3-methoxy-2,2,3-trimethylcyclobutyl)phthalazin-1-amine] was run?
Its IC50 is 4570 nM.

How did the IC50 turn out when `CC12CCC(Nc3nnc(-c4ccc(Cl)cc4)c4ccccc34)(CO1)C2` (centres unmarked) [Example 136, 4-(4-chlorophenyl)-N-(1-methyl-2-oxabicyclo[2.2.1]heptan-4-yl)phthalazin-1-amine] was run?
The IC50 was 3720 nM.

Which IC50 does the source give for `COc1ccc(-c2nnc(NC3CCCC(C)(O)C3)c3ccccc23)cc1` (centres unmarked) [Example 137, 3-((4-(4-methoxyphenyl)phthalazin-1-yl)amino)-1-methylcyclohexan-1-ol] here?
Its IC50 is 3800 nM.

`CC1(O)CCCC(Nc2nnc(-c3ccc(Cl)cc3)c3ccccc23)C1` (centres unmarked) [Example 138, 3-((4-(4-chlorophenyl)phthalazin-1-yl)amino)-1-methylcyclohexan-1-ol] was tested. Which IC50 did it give?
Its IC50 is 1110 nM.

Which IC50 does the source give for `COc1ccc(-c2nnc(NC3CCCN(CCF)C3)c3ccccc23)cc1` (centres unmarked) [Example 141, N-(1-(2-fluoroethyl)piperidin-3-yl)-4-(4-methoxyphenyl)phthalazin-1-amine] here?
The IC50 was 269 nM.

Which IC50 does the source give for `FC(F)CN1CCCC(Nc2nnc(-c3ccc(Cl)cc3)c3ccccc23)C1` (centres unmarked) [Example 142, 4-(4-chlorophenyl)-N-(1-(2,2-difluoroethyl)piperidin-3-yl)phthalazin-1-amine] here?
Its IC50 is 195 nM.

With `FCCN1CCC(Nc2nnc(-c3ccc(Cl)cc3)c3ccccc23)C1` (centres unmarked) [Example 143, 4-(4-chlorophenyl)-N-(1-(2-fluoroethyl)pyrrolidin-3-yl)phthalazin-1-amine] as the molecule, how does the IC50 read?
The IC50 was 1590 nM.

For `Clc1ccc(-c2nnc(NC3CCCN(C4CCC4)C3)c3ccccc23)cc1` (centres unmarked) [Example 145, 4-(4-chlorophenyl)-N-(1-cyclobutylpiperidin-3-yl)phthalazin-1-amine], which IC50 is on record?
The IC50 was 132 nM.

With `Clc1ccc(-c2nnc(NC3CCCN(C4CCCC4)C3)c3ccccc23)cc1` (centres unmarked) [Example 146, 4-(4-chlorophenyl)-N-(1-cyclopentylpiperidin-3-yl)phthalazin-1-amine] as the molecule, how does the IC50 read?
Its IC50 is 56 nM.

For `FC(F)(F)CN1CCCC(Nc2nnc(-c3ccc(Cl)cc3)c3ccccc23)C1` (centres unmarked) [Example 147, 4-(4-chlorophenyl)-N-(1-(2,2,2-trifluoroethyl)piperidin-3-yl)phthalazin-1-amine], which IC50 is on record?
The IC50 was 1480 nM.

Which IC50 does the source give for `CS(=O)(=O)N1CCCC(Nc2nnc(-c3ccc(Cl)cc3)c3ccccc23)C1` (centres unmarked) [Example 148, 4-(4-chlorophenyl)-N-(1-(methylsulfonyl)piperidin-3-yl)phthalazin-1-amine] here?
Its IC50 is 1050 nM.

`CN(C)C1CC(Nc2nnc(-c3ccc(Cl)cc3)c3ccccc23)C1` (centres unmarked) [Example 149, Ni-(4-(4-chlorophenyl)phthalazin-1-yl)-N^3,N^3-dimethylcyclobutane-1,3-diamine] was tested. Which IC50 did it give?
Its IC50 is 3310 nM.

With `COc1ccc(-c2nnc(NC3CCCN(C)C3)c3cnn(C)c23)cc1` (centres unmarked) [Example 150, 7-(4-methoxyphenyl)-1-methyl-N-(1-methylpiperidin-3-yl)-1H-pyrazolo[3,4-d]pyridazin-4-amine] as the molecule, how does the IC50 read?
The IC50 was 325 nM.

How did the IC50 turn out when `CN1CC2CCCC(C1)C2Nc1nnc(-c2ccc(Cl)cc2)c2ccccc12` (centres unmarked) [Example 151, 4-(4-chlorophenyl)-N-(3-methyl-3-azabicyclo[3.3.1]nonan-9-yl)phthalazin-1-amine] was run?
The IC50 was 3020 nM.

Which IC50 does the source give for `Clc1ccc(-c2nnc(NC3CCCN(c4ccccn4)C3)c3ccccc23)cc1` (centres unmarked) [Example 154, 4-(4-chlorophenyl)-N-(1-(pyridin-2-yl)piperidin-3-yl)phthalazin-1-amine] here?
Its IC50 is 3390 nM.

`Oc1ccccc1Nc1nnc(-c2ccc(Cl)cc2)c2ccccc12` [Example 156, 2-((4-(4-chlorophenyl)phthalazin-1-yl)amino)phenol] was tested. Which IC50 did it give?
Its IC50 is 3550 nM.

How did the IC50 turn out when `CN1CC(Nc2nnc(-c3ccc(Cl)cc3)c3ccccc23)C(C)(C)C1` (centres unmarked) [Example 157, 4-(4-chlorophenyl)-N-(1,4,4-trimethylpyrrolidin-3-yl)phthalazin-1-amine] was run?
The IC50 was 4570 nM.

How did the IC50 turn out when `Clc1ccc(-c2nnc(NC3CCN(Cc4ccccc4)C3)c3ccccc23)cc1` (centres unmarked) [Example 158, N-(1-benzylpyrrolidin-3-yl)-4-(4-chlorophenyl)phthalazin-1-amine] was run?
Its IC50 is 2290 nM.

How did the IC50 turn out when `CCN1CC(C)C(Nc2nnc(-c3ccc(Cl)cc3)c3ccccc23)C1` (centres unmarked) [Example 159, 4-(4-chlorophenyl)-N-(1-ethyl-4-methylpyrrolidin-3-yl)phthalazin-1-amine] was run?
Its IC50 is 3630 nM.

With `CC(=O)N1CCC(Nc2nnc(-c3ccc(Cl)cc3)c3ccccc23)C1` (centres unmarked) [Example 160, 1-(3-((4-(4-chlorophenyl)phthalazin-1-yl)amino)pyrrolidin-1-yl)ethan-1-one] as the molecule, how does the IC50 read?
Its IC50 is 4790 nM.

`Clc1ccc(-c2nnc(NC3CCN(CC4CC4)C3)c3ccccc23)cc1` (centres unmarked) [Example 161, 4-(4-chlorophenyl)-N-(1-(cyclopropylmethyl)pyrrolidin-3-yl)phthalazin-1-amine] was tested. Which IC50 did it give?
Its IC50 is 977 nM.

With `Clc1ccc(-c2nnc(NC3CCN(Cc4ccccc4)CC3)c3ccccc23)cc1` [Example 163, N-(1-benzylpiperidin-4-yl)-4-(4-chlorophenyl)phthalazin-1-amine] as the molecule, how does the IC50 read?
Its IC50 is 3020 nM.

Which IC50 does the source give for `Clc1ccc(-c2nnc(NC3CN4CCC3CC4)c3ccccc23)cc1` (centres unmarked) [Example 164, N-(4-(4-chlorophenyl)phthalazin-1-yl)quinuclidin-3-amine] here?
Its IC50 is 372 nM.

For `CC(C)[C@@H]1CN(C)C[C@H]1Nc1nnc(-c2ccc(Cl)cc2)c2ccccc12` [Example 165, 4-(4-chlorophenyl)-N-((3S,4R)-4-isopropyl-1-methylpyrrolidin-3-yl)phthalazin-1-amine], which IC50 is on record?
Its IC50 is 3470 nM.

With `Clc1ccc(-c2nnc(NC3CN4CCC3C4)c3ccccc23)cc1` (centres unmarked) [Example 166, N-(1-azabicyclo[2.2.1]heptan-3-yl)-4-(4-chlorophenyl)phthalazin-1-amine] as the molecule, how does the IC50 read?
The IC50 was 3310 nM.

`Clc1ccc(-c2nnc(NC3CCN4CCC3C4)c3ccccc23)cc1` (centres unmarked) [Example 167, N-(1-azabicyclo[3.2.1]octan-4-yl)-4-(4-chlorophenyl)phthalazin-1-amine] was tested. Which IC50 did it give?
The IC50 was 3390 nM.

How did the IC50 turn out when `FC(F)CN1CCC(Nc2nnc(-c3ccc(Cl)cc3)c3ccccc23)C1` (centres unmarked) [Example 170, 4-(4-chlorophenyl)-N-(1-(2,2-difluoroethyl)pyrrolidin-3-yl)phthalazin-1-amine] was run?
The IC50 was 2140 nM.

`CN1C[C@H](F)C[C@@H](Nc2nnc(-c3ccc(Cl)cc3)c3cnccc23)C1` [Example 175, 4-(4-chlorophenyl)-N-((3R,5R)-5-fluoro-1-methylpiperidin-3-yl)pyrido[3,4-d]pyridazin-1-amine] was tested. Which IC50 did it give?
The IC50 was 589 nM.

`COc1ccc(-c2nnc(N[C@@H]3C[C@@H](F)CN(C)C3)c3ccncc23)cc1` [Example 179, N-((3R,5R)-5-fluoro-1-methylpiperidin-3-yl)-4-(4-methoxyphenyl)pyrido[3,4-d]pyridazin-1-amine] was tested. Which IC50 did it give?
The IC50 was 575 nM.

With `COc1ccc(-c2nnc(N[C@@H]3C[C@@H](F)CN(C)C3)c3cnccc23)c(F)c1` [Example 180, N-((3R,5R)-5-fluoro-1-methylpiperidin-3-yl)-1-(2-fluoro-4-methoxyphenyl)pyrido[3,4-d]pyridazin-4-amine] as the molecule, how does the IC50 read?
The IC50 was 136 nM.
